Laboratory results taken from article PMC6950567, “Evaluation of Marine Diindolinonepyrane in Vitro and in Vivo: Permeability Characterization in Caco-2 Cells Monolayer and Pharmacokinetic Properties in Beagle Dogs” (Marine Drugs, 2019).
“Also recorded” adds a separate entry of the source. Where two headings read alike, the source gives them in different places.

How the values were obtained:
P-gp = target: T1, P-gp (Homo sapiens, UniProt P08183); experiment: P-gp substrate assessment from Caco-2 bidirectional transport; type: in vitro ADME; conditions: suggested from Caco-2 transport with 0.1% BSA
T1 construct: host or cells: Caco-2
Description: The Caco-2 cell model was established successfully, and the transwell plate was then rinsed with HBSS solution three times and cultured in an incubator at 37 °C for 30 min to remove the interfering substances on the cell surface. For transfer in the AP→BL direction, 0.075 mL drug solution was added to the AP side as the supply pool, and 0.25 mL HBSS solution was added to the BL side as the receiving pool. In the BL→AP direction, 0.25 mL compound solution was added to the BL side as the supply pool, and 0.075 mL HBSS solution was added to the AP side as the receiving pool. The transwell plate was then cultured in an incubator at 37 °C for 2 h. Samples on the AP side and BL side were collected, respectively. Then, acetonitrile containing an internal label was added to each upper chamber to lyse transport membranes. The total recovery was calculated by collecting the amount of lead compound absorbed on the membrane surface or accumulated in the cell. Finally, the concentration of each sample was calculated as the ratio of the peak area between the compound and the inner target through mass spectrum analysis (API 4000). […] Vr is the volume in the receiving hole (mL); A is the transport membrane area; and C0 is the compound initiation concentration (µM). […]

[1] = Short-term stability in beagle dog plasma; type: in vitro ADME; conditions: 24 h, residual/initial
Description: The stability of 2,5-BHPA was assayed at 1, 100, and 400 mg/L. The short-term stability of 2,5-BHPA stored at 37 °C was determined after 24 h. Stability was defined as the amount of 2,5-BHPA residual after 24 h divided by the initial amount.

[2] = Pharmacokinetics after intravenous injection in beagle dogs; type: in vivo; conditions: for Cmax / MRT / clearance / half-life: male, dog, whole blood
Description: Male beagle dogs (SPF, 10.2–10.8 kg, aged 2 years) were provided by the Xingang Experimental Animal Co., Ltd. (Shanghai, China). All dogs were fed with standard laboratory food and water ad libitum at least 3 days prior to the experiments in an environmentally controlled room (12 h dark-light cycle; ~25 °C, 60% humidity, GB14925-2001). All protocols and procedures were approved by the Institutional Animal Care and Use Committee of Shanghai Ocean University (Approval number: 13-0012). The blood and tissues of the dogs were removed while the dogs were ether anesthetized. Their plasma was collected from the fossa orbitalis vein. Every effort was made to minimize animal pain and suffering.
2,5-BHPA was dissolved in normal saline with NaHCO3 as a solvent (2,5-BHPA/NaHCO3, m/m, 1:1), which was agitated overnight on a magnetic stirrer. Subsequently, it was diluted to different concentrations, filtered, and stored in a refrigerator at 4 °C. The dose was adjusted according to the body weight of the beagle dogs in a volume of 200 µL, and 2,5-BHPA was administered by intravenous injection (7.5, 5.0, and 2.5 mg/kg). Subcutaneous injection in the forearm was used in the experiment.
Nine dogs were randomly divided into three groups (n = 3) and fasted for 24 h with water ad libidum. 2,5-BHPA was administered by intravenous injection (7.5, 5.0, and 2.5 mg/kg). The volume of the three sample levels was identical. The blood samples of 200 µL were drawn at 0, 1, 5, 15, 30, 40, 60, 120, and 240 min after drug treatment, and the samples were immediately stored with 1.8 mL of methanol (methanol:blood = 9:1, v/v). The samples were mixed and centrifuged at 5000× g for 15 min at RT, and the supernatants were filtered for HPLC analysis.
The data were processed with Microsoft Excel 2013 edited by Microsoft (Seattle, WA, USA) and SPSS V25.0 edited by SPSS (Chicago, IL, USA). PKsolver V2.0 edited by China Pharmaceutical University (Nanjing, China) was used to calculate the pharmacokinetic parameters and the compartment model. The image was processed with Origin 9.0 software edited by Origin Lab (Northampton, MA, USA).

[3] = Tissue distribution after intravenous injection in beagle dogs; type: in vivo; conditions: 7.5 mg/kg
Description: Moreover, another three dogs were fasted for 24 h with water ad libidum for the tissue distribution study. 2,5-BHPA was administered by intravenous injection at 7.5 mg/kg. Subsequently, their brain, stomach (emptied of gastric contents), heart, large intestine (emptied of gastric contents), liver, kidneys, spleen, urine, lungs, spermary, small intestine (emptied of gastric contents), feces, muscle, bile of dogs were removed at 60 min after compound administration. The tissues were flushed with normal saline, dried, weighed, and homogenized in proper methanol (methanol:sample = 5:1, V/V). The tissue samples were centrifuged at 5000× g for 15 min at RT, and the supernatants were filtered with a 0.22 µm disposable syringe filter for HPLC detection.

[4] = design: method as in PMID 24216275; conditions: rats, cited from earlier work
fibrinolytic enzyme = test system: fibrinolytic enzyme; design: method as in earlier work; conditions: cited from earlier work
[5] = beagle dogs, intravenous, 2.5 mg·kg^−1
[6] = beagle dogs, intravenous, 5.0 mg·kg^−1
[7] = beagle dogs, intravenous, 7.5 mg·kg^−1

T1 sequence (P08183 whole entry): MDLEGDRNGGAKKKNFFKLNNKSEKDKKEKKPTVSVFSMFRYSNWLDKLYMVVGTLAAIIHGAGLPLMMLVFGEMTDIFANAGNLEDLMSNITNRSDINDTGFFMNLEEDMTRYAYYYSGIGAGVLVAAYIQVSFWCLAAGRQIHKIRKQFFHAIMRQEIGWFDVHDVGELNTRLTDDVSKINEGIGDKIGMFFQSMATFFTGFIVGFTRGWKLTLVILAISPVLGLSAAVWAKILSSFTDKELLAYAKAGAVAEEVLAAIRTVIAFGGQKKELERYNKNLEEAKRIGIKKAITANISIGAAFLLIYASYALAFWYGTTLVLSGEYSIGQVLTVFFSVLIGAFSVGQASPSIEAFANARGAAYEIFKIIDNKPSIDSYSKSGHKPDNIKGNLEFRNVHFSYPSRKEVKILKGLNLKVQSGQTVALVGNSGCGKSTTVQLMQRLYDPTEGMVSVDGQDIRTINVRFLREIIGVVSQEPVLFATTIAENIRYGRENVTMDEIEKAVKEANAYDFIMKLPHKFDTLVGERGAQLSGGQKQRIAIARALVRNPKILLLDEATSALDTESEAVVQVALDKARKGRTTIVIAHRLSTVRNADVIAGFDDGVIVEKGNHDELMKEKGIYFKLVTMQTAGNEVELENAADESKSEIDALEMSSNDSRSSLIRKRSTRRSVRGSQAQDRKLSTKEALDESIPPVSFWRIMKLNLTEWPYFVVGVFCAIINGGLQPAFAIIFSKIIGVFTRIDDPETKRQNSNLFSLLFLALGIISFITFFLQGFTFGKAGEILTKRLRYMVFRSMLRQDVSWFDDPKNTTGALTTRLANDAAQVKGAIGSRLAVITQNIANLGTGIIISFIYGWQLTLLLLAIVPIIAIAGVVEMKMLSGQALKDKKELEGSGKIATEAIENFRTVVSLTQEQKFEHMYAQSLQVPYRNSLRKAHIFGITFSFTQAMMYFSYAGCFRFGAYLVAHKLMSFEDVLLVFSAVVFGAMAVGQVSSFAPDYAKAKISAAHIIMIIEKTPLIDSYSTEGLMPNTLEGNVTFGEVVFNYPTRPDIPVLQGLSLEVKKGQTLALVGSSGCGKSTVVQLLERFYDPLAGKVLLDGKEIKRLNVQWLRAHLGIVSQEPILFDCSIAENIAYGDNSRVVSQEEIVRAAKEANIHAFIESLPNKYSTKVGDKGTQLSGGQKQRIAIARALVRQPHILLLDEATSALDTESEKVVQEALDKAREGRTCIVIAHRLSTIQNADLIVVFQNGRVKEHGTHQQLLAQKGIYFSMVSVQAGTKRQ

substrate of P-gp (P-gp): not a substrate of P-gp
Stability ([1]; 1.0 μg·mL^−1, 37 °C): 94.69 ± 5.37%
Stability ([1]; 100 μg·mL^−1, 37 °C): 98.39 ± 2.25%
Stability ([1]; 400 μg·mL^−1, 37 °C): 97.63 ± 5.91%
K10 [2, 5]: 0.055 ± 0.021 min⁻¹
K12 [2, 5]: 0.009 ± 0.004 min⁻¹
K21 [2, 5]: 0.018 ± 0.001 min⁻¹
K10 [2, 6]: 0.075 ± 0.012 min⁻¹
K12 [2, 6]: 0.017 ± 0.002 min⁻¹
K21 [2, 6]: 0.018 ± 0.001 min⁻¹
K10 [2, 7]: 0.051 ± 0.015 min⁻¹
K12 [2, 7]: 0.007 ± 0.004 min⁻¹
K21 [2, 7]: 0.017 ± 0.003 min⁻¹
half-life (T1/2) in dogs compared with rats ([2]; dogs (this study) versus rats [14]): about two times longer than in rats
dose linearity of pharmacokinetics ([2]; dogs, intravenous, dose range 2.5-7.5 mg/kg, from CL and MRT): linear pharmacokinetic characteristics
Cmax [2, 5]: 13600 ± 2760 ng/mL
MRT [2, 5]: 28.7 min
clearance [2, 5]: 9.2 ± 0.6 mL/min/kg
half-life [2, 5]: 49 ± 2 min
Cmax [2, 6]: 48600 ± 5530 ng/mL
MRT [2, 6]: 26.2 min
clearance [2, 6]: 7.1 ± 0.8 mL/min/kg
half-life [2, 6]: 48 ± 2 min
Cmax [2, 7]: 56500 ± 6230 ng/mL
MRT [2, 7]: 28.2 min
clearance [2, 7]: 6.2 ± 0.4 mL/min/kg
half-life [2, 7]: 49 ± 2 min
detection in the brain ([3]; 60 min after intravenous injection): detected in the brain
SMILES: CC(C)=CCCC(C)=CCCC1(C)Oc2c(c(O)cc3c2CN(CCCC(C(=O)O)N2Cc4c(cc(O)c5c4OC(C)(CCC=C(C)CCC=C(C)C)C(O)C5)C2=O)C3=O)CC1O (stereo not shown) [2,5-BHPA, 2,5-Bis-[8-(4,8-dimethyl-nona-3,7-dienyl)-5,7-dihydroxy-8-methyl-3-keto-1,2,7,8-tertahydro-6H-pyran[a]isoindol-2-yl]-pentanoic acid]
compartment model of plasma concentration-time curves ([2]; beagle dogs, intravenous, 7.5, 5.0, 2.5 mg·kg^−1, weight = 1/c^2): fitted well to a two-compartment model; also recorded: consistent with the two-compartment model
concentration in different organs ([3]; 1 h after intravenous injection): concentration in the liver and bile was higher compared with other organs; also recorded: Lung, kidney, spleen, stomach, excrement, and urine contained moderate amounts; also recorded: highest 2,5-BHPA concentration level was detected in the liver
half-life ([4]; intravenous (IV) bolus): ~ 22 min
detection in the brain [4]: not the case in rats
tissue with the highest concentration level (liver) [4]: same as in rats
fibrinolytic activity (fibrinolytic enzyme): has been shown to have fibrinolytic activity
